The values below come from patent US12677832B2, “Oxadiazole compounds for controlling or preventing phytopathogenic fungi” (PI INDUSTRIES LTD., priority 2019, dated 2026).

This experiment concerns Phakopsora pachyrhizi. The experiment can be described thus: Phakopsora pachyrhizi Test in Soybean (preventive spray). Type of experiment: in vivo. The following applies: preventive spray on Soybean plants, inoculated one day after treatment, disease severity vs untreated control. The protocol:
Example 7: Phakopsora pachyrhizi Test in Soybean Compounds were dissolved in 2% dimethyl sulfoxide/acetone and then mixed with water containing an emulsifier to a calibrated spray volume of 50 mL. This 50 mL spray solution was poured into spray bottles for further applications. To test the preventive activity of compounds, healthy young Soybean plants, raised in the greenhouse, were sprayed with the active compound preparation at the stated application rates inside the spray cabinets using hollow cone nozzles. One day after treatment, the plants were inoculated with a spore suspension containing 2×10^5Phakopsora pachyrhizi conidia. The inoculated plants were then kept in a greenhouse chamber at 22-24° C. temperature and 80-90% relative humidity for disease expression. A visual assessment of the compound's performance was carried out by rating the disease severity (0-100% scale) on treated plants 3, 7, 10 and 15 days after application. Efficacy (% control) of the compounds was calculated by comparing the disease rating in the treatment with the one of the untreated control. The sprayed plants were also assessed for plant compatibility by recording symptoms like necrosis, chlorosis and stunting.

Bounds are passed on as bounds.

For orientation: pest or weed control means how far the test organism was held down. Low readings indicate weak suppression, high ones strong suppression. As for `O=C(CSc1c(Cl)cccc1Cl)c1ccc(-c2noc(C(F)(F)F)n2)cc1` [Compound 13, 2-((2,6-dichlorophenyl)thio)-1-(4-(5-(trifluoromethyl)-1,2,4-oxadiazol-3-yl)phenyl)ethan-1-one], the pest or weed control at 500 ppm is no less than 70%. In turn, `Cc1cc(F)cc(OCC(=O)c2ccc(-c3noc(C(F)(F)F)n3)cc2)c1` [Compound 41, 2-(3-fluoro-5-methylphenoxy)-1-(4-(5-(trifluoromethyl)-1,2,4-oxadiazol-3-yl)phenyl)ethan-1-one] had a pest or weed control at 500 ppm of no less than 70%.

In the case of `Cc1ccc(C(F)(F)F)c(OCC(=O)c2ccc(-c3noc(C(F)(F)F)n3)cc2)n1` [Compound 45, 2-((6-methyl-3-(trifluoromethyl)pyridin-2-yl)oxy)-1-(4-(5-(trifluoromethyl)-1,2,4-oxadiazol-3-yl)phenyl)ethan-1-one], the pest or weed control at 500 ppm was no less than 70%. `O=C(C[S+]([O-])c1cccc(C(F)(F)F)c1)c1ccc(-c2noc(C(F)(F)F)n2)cc1` (stereo not drawn) [Compound 85, 1-(4-(5-(trifluoromethyl)-1,2,4-oxadiazol-3-yl)phenyl)-2-((3-(trifluoromethyl)phenyl)sulfinyl)ethan-1-one]: the pest or weed control at 500 ppm was no less than 70%. For `Cc1ccc(C)c(OCC(=O)c2ccc(-c3noc(C(F)(F)F)n3)cc2)c1` [Compound 16, 2-(2,5-dimethylphenoxy)-1-(4-(5-(trifluoromethyl)-1,2,4-oxadiazol-3-yl)phenyl)ethan-1-one] the value was no less than 70%.

Molecule `O=C(COc1ccc(F)nc1)c1ccc(-c2noc(C(F)(F)F)n2)cc1` [Compound 47, 2-((6-fluoropyridin-3-yl)oxy)-1-(4-(5-(trifluoromethyl)-1,2,4-oxadiazol-3-yl)phenyl)ethan-1-one] returned a pest or weed control at 500 ppm of no less than 70%. The same measure for `Cc1ccc([S+]([O-])CC(=O)c2ccc(-c3noc(C(F)(F)F)n3)cc2)cc1` (stereo not drawn) [Compound 86, 2-(p-tolylsulfinyl)-1-(4-(5-(trifluoromethyl)-1,2,4-oxadiazol-3-yl)phenyl)ethan-1-one]: no less than 70%; for `O=C(CSc1cccc(Cl)c1)c1ccc(-c2noc(C(F)(F)F)n2)cc1` [Compound 54, 2-((3-chlorophenyl)thio)-1-(4-(5-(trifluoromethyl)-1,2,4-oxadiazol-3-yl)phenyl)ethan-1-one]: no less than 70%. The same measure for `COc1ccc(CSCC(=O)c2ccc(-c3noc(C(F)(F)F)n3)cc2)cc1` [Compound 57, 2-((4-methoxybenzyl)thio)-1-(4-(5-(trifluoromethyl)-1,2,4-oxadiazol-3-yl)phenyl)ethan-1-one]: no less than 70%; for `O=C(COc1ccc(Br)cc1)c1ccc(-c2noc(C(F)(F)F)n2)cc1` [Compound 5, 2-(4-bromophenoxy)-1-(4-(5-(trifluoromethyl)-1,2,4-oxadiazol-3-yl)phenyl)ethan-1-one]: no less than 70%. `O=C(COc1cccc(C(F)(F)F)c1)c1ccc(-c2noc(C(F)(F)F)n2)cc1` [Compound 40, 1-(4-(5-(trifluoromethyl)-1,2,4-oxadiazol-3-yl)phenyl)-2-(3-(trifluoromethyl)phenoxy)ethan-1-one]: the pest or weed control at 500 ppm was no less than 70%. For `O=C(CNc1ccc(C(F)(F)F)cc1)c1ccc(-c2noc(C(F)(F)F)n2)cc1` [Compound 28, 1-(4-(5-(trifluoromethyl)-1,2,4-oxadiazol-3-yl)phenyl)-2-((4-(trifluoromethyl)phenyl)amino)ethan-1-one] the value was no less than 70%. For `O=C(CS(=O)(=O)c1cccc(C(F)(F)F)c1)c1ccc(-c2noc(C(F)(F)F)n2)cc1` [Compound 103, 1-(4-(5-(trifluoromethyl)-1,2,4-oxadiazol-3-yl)phenyl)-2-((3-(trifluoromethyl)phenyl)sulfonyl)ethan-1-one], the pest or weed control at 500 ppm was no less than 70%. The same measure for `COc1ccc(CS(=O)(=O)CC(=O)c2ccc(-c3noc(C(F)(F)F)n3)cc2)cc1` [Compound 98, 2-((4-methoxybenzyl)sulfonyl)-1-(4-(5-(trifluoromethyl)-1,2,4-oxadiazol-3-yl)phenyl)ethan-1-one]: no less than 70%; for `O=C(C[S+]([O-])c1ccccc1F)c1ccc(-c2noc(C(F)(F)F)n2)cc1` (stereo not drawn) [Compound 88, 2-((2-fluorophenyl)sulfinyl)-1-(4-(5-(trifluoromethyl)-1,2,4-oxadiazol-3-yl)phenyl)ethan-1-one]: no less than 70%. Consider `COc1ccc(SCC(=O)c2ccc(-c3noc(C(F)(F)F)n3)cc2)cc1` [Compound 23, 2-((4-methoxyphenyl)thio)-1-(4-(5-(trifluoromethyl)-1,2,4-oxadiazol-3-yl)phenyl)ethan-1-one], for which the pest or weed control at 500 ppm was no less than 70%. In the case of `O=C(CSCc1ccccc1)c1ccc(-c2noc(C(F)(F)F)n2)cc1` [Compound 56, 2-(benzylthio)-1-(4-(5-(trifluoromethyl)-1,2,4-oxadiazol-3-yl)phenyl)ethan-1-one], the pest or weed control at 500 ppm was no less than 70%. The same measure for `O=C(COc1ccc(C(F)(F)F)cc1)c1ccc(-c2noc(C(F)(F)F)n2)cc1` [Compound 36, 1-(4-(5-(trifluoromethyl)-1,2,4-oxadiazol-3-yl)phenyl)-2-(4-(trifluoromethyl)phenoxy)ethan-1-one]: no less than 70%; for `O=C(COc1cccc(Cl)c1)c1ccc(-c2noc(C(F)(F)F)n2)cc1` [Compound 35, 2-(3-chlorophenoxy)-1-(4-(5-(trifluoromethyl)-1,2,4-oxadiazol-3-yl)phenyl)ethan-1-one]: no less than 70%.

As for `O=C(COc1ccc(Cl)cc1)c1ccc(-c2noc(C(F)(F)F)n2)cc1` [Compound 6, 2-(4-chlorophenoxy)-1-(4-(5-(trifluoromethyl)-1,2,4-oxadiazol-3-yl)phenyl)ethan-1-one], the pest or weed control at 500 ppm was no less than 70%.

The molecule `CC(c1ccccc1)[S+]([O-])CC(=O)c1ccc(-c2noc(C(F)(F)F)n2)cc1` (stereo not drawn) [Compound 82, 2-((1-phenylethyl)sulfinyl)-1-(4-(5-(trifluoromethyl)-1,2,4-oxadiazol-3-yl)phenyl)ethan-1-one] registered a pest or weed control at 500 ppm of no less than 70%. For the molecule `Cc1csc(SCC(=O)c2ccc(-c3noc(C(F)(F)F)n3)cc2)n1` [Compound 26, 2-((4-methylthiazol-2-yl)thio)-1-(4-(5-(trifluoromethyl)-1,2,4-oxadiazol-3-yl)phenyl)ethan-1-one], the pest or weed control at 500 ppm was no less than 70%. Molecule `O=C(CNc1ccccc1F)c1ccc(-c2noc(C(F)(F)F)n2)cc1` [Compound 29, 2-((2-fluorophenyl)amino)-1-(4-(5-(trifluoromethyl)-1,2,4-oxadiazol-3-yl)phenyl)ethan-1-one] registered a pest or weed control at 500 ppm of no less than 70%. For `O=C(CS(=O)(=O)c1ccc(Cl)cc1)c1ccc(-c2noc(C(F)(F)F)n2)cc1` [Compound 95, 2-((4-chlorophenyl)sulfonyl)-1-(4-(5-(trifluoromethyl)-1,2,4-oxadiazol-3-yl)phenyl)ethan-1-one] the value was no less than 70%; for `O=C(C[S+]([O-])c1ccccc1)c1ccc(-c2noc(C(F)(F)F)n2)cc1` (stereo not drawn) [Compound 84, 2-(phenylsulfinyl)-1-(4-(5-(trifluoromethyl)-1,2,4-oxadiazol-3-yl)phenyl)ethan-1-one], no less than 70%; for `COc1ccccc1OCC(=O)c1ccc(-c2noc(C(F)(F)F)n2)cc1` [Compound 11, 2-(2-methoxyphenoxy)-1-(4-(5-(trifluoromethyl)-1,2,4-oxadiazol-3-yl)phenyl)ethan-1-one], no less than 70%. `COc1ccccc1SCC(=O)c1ccc(-c2noc(C(F)(F)F)n2)cc1` [Compound 63, 2-((2-methoxyphenyl)thio)-1-(4-(5-(trifluoromethyl)-1,2,4-oxadiazol-3-yl)phenyl)ethan-1-one] displayed a pest or weed control at 500 ppm of no less than 70%.

For `Cc1cccc(OCC(=O)c2ccc(-c3noc(C(F)(F)F)n3)cc2)c1` [Compound 10, 2-(m-tolyloxy)-1-(4-(5-(trifluoromethyl)-1,2,4-oxadiazol-3-yl)phenyl)ethan-1-one], the pest or weed control at 500 ppm is no less than 70%. `O=C(CSc1ccc(Cl)cc1)c1ccc(-c2noc(C(F)(F)F)n2)cc1` [Compound 53, 2-((4-chlorophenyl)thio)-1-(4-(5-(trifluoromethyl)-1,2,4-oxadiazol-3-yl)phenyl)ethan-1-one] yielded a pest or weed control at 500 ppm of no less than 70%. The same measure for `O=C(CS(=O)(=O)C1CCCCC1)c1ccc(-c2noc(C(F)(F)F)n2)cc1` [Compound 100, 2-(cyclohexylsulfonyl)-1-(4-(5-(trifluoromethyl)-1,2,4-oxadiazol-3-yl)phenyl)ethan-1-one]: no less than 70%; for `O=C(C[S+]([O-])c1ccc(Cl)cc1)c1ccc(-c2noc(C(F)(F)F)n2)cc1` (stereo not drawn) [Compound 78, 2-((4-chlorophenyl)sulfinyl)-1-(4-(5-(trifluoromethyl)-1,2,4-oxadiazol-3-yl)phenyl)ethan-1-one]: no less than 70%.

As for `O=C(C[S+]([O-])c1cccc(F)c1)c1ccc(-c2noc(C(F)(F)F)n2)cc1` (stereo not drawn) [Compound 87, 2-((3-fluorophenyl)sulfinyl)-1-(4-(5-(trifluoromethyl)-1,2,4-oxadiazol-3-yl)phenyl)ethan-1-one], the pest or weed control at 500 ppm was no less than 70%. `O=C(COc1cccc(F)c1)c1ccc(-c2noc(C(F)(F)F)n2)cc1` [Compound 3, 2-(3-fluorophenoxy)-1-(4-(5-(trifluoromethyl)-1,2,4-oxadiazol-3-yl)phenyl)ethan-1-one]: the pest or weed control at 500 ppm was no less than 70%.
